Earlier results, collected in patent EP0956866A1, “DRUGS FOR AMELIORATING OPHTHALMIC CIRCULATORY DISTURBANCE” (KIRIN BEER KABUSHIKI KAISHA, priority 1996, dated 1998).

Experiments:
[1] = disclosed in WO89/10757
[2] = literature report

## CC1(C)Oc2ccc(C#N)cc2C(N2CCCC2=O)C1O (stereo not drawn) [cromakalim]
[1]
  ocular pressure: lower the ocular pressure
[2]
  ocular blood flow: lowers the ocular blood flow

## CC(N/C(=N\C#N)Nc1ccncc1)C(C)(C)C (stereo not drawn) [pinacidil]
[1]
  ocular pressure: lower the ocular pressure
